Assay results: publication PMC8911579, “(−)-Naringenin 4′,7-dimethyl Ether Isolated from Nardostachys jatamansi Relieves Pain through Inhibition of Multiple Channels” (Molecules, 2022)

Tests used:
[1] = system: acutely isolated mouse small-diameter DRG neurons; test: whole-cell current-clamp, action potential firing in DRG neurons; type: cell-based; conditions: for action potential amplitude: 200 pA current injection, 500 ms, control 98.00 ± 6.19 mV
Excerpt: To investigate the underlying mechanism of (−)-NRG-DM-mediated analgesic activity, whole-cell current-clamp technology was applied to examine the effects of (−)-NRG-DM on the action potential firing in acutely isolated mouse small-diameter DRG neurons. The action potentials were evoked by a current injection of 200 pA for a 500 ms period. The threshold was defined by the first amplitude at which an action potential with a membrane potential larger than 0 mV was produced, and the amplitude was defined as the peak relative to the resting membrane potential. […] The amplitudes were reduced from 98.00 ± 6.19 mV to 95.00 ± 5.65 mV, 93.40 ± 8.27 mV, 86.80 ± 9.75 mV, and 74.40 ± 7.08 mV after perfusion of 1 μM, 3 μM, 10 μM, and 30 μM (−)-NRG-DM, respectively (Figure 4C, n = 5). Current threshold, the injection current required to elicit a single all-or-none action potential, was determined by applying 500 ms depolarizing currents of increasing magnitude. […] The inhibitory effects of (−)-NRG-DM on the firing frequency and the amplitudes of action potentials were partially reversible after washout.
(§1) Dorsal root ganglia (DRG) were dissected from male C57BL/6 mice aged 4~6 weeks. The ganglia were first cut into small pieces and then digested at 37 °C for 20 min in DMEM containing 1 mg/mL collagenase type I and 0.25 mg/mL trypsin (Sigma-Aldrich). Subsequently, the digested small fragments were terminated and resuspended with DMEM/F12 growth medium (Gibco) supplemented with 10% fetal bovine serum (FBS) (Gibco). Finally, the dissociated DRG neurons were seeded onto 24-well plates with poly-L-lysine-coated coverslips and placed in a 37 °C, 5% CO2 incubator for at least 1 h before electrophysiological experiments.

[2] = system: Kv channels in DRG neurons; test: activation kinetics of Kv currents in DRG neurons; type: cell-based, mouse; conditions: in presence of 10 µM; control −6.43 ± 1.21 mV
Excerpt: (§2) The currents in mouse DRG neurons can be separated into IA and IK. They could be distinguished by applying voltage steps from a holding potential of −50 mV, at which IA was almost completely inactivated, while IK remained unchanged. Thereby, IA could be separated by subtracting IK from the total potassium currents. According to these electrophysiological characteristics, the effects of (−)-NRG-DM on potassium currents were examined (Figure 5A). […] Additionally, the effects of (−)-NRG-DM on the kinetics of the Kv channels were further characterized. The Kv currents were elicited by multiple 1500 ms depolarization pulses ranging from −80 mV to +90 mV in 10 mV increments from a holding potential of −80 mV. […] The values of V1/2 in the absence and presence of 10 µM (−)-NRG-DM were −6.43 ± 1.21 mV and −8.08 ± 2.02 mV, respectively (Figure 5D).

[3] = system: TTX-resistant (TTX-R) currents in small-diameter DRG neurons; type: cell-based, mouse; conditions: 300 nM TTX
[4] = system: native Nav currents in DRG neurons; test: whole-cell patch-clamp, native sodium currents in DRG neurons; type: cell-based, mouse
Experimental: A reduction in amplitudes of action potentials manifested that (−)-NRG-DM may inhibit native sodium currents, which are mainly involved in the rising phase of an action potential. To record native sodium currents in acutely isolated DRG neurons, a 50 ms test pulse depolarized to −20 mV from a holding potential of −90 mV was applied. […] To understand how (−)-NRG-DM inhibited Nav channels, the effects of 30 µM compound (−)-NRG-DM on Nav channel kinetics were further characterized. […] In contrast to the lack of effect on the Nav channel activation, (−)-NRG-DM caused a depolarization shift of the steady-state inactivation. The V1/2 value was shifted from −65.72 ± 1.74 mV to −55.34 ± 2.14 mV by 30 µM (−)-NRG-DM (Figure 6G).
as §1

[5] = system: delayed rectifier potassium currents (IK) in DRG neurons; test: whole-cell patch-clamp, delayed rectifier potassium currents in DRG neurons; type: cell-based, mouse
Excerpt: as §2
as §1, with “Finally, the dissociated DRG neurons were seeded onto 24-well plates with poly-L-lysine-coated coverslips and placed in a 37 °C, 5% CO2 incubator for at least 1 h before electrophysiological experiments.” left out

[6] = system: motor coordination in mice; test: rotarod test (motor impairment / neurotoxicity); type: in vivo, ICR mice
Experimental: To exclude possible non-specific muscle relaxant or sedative effects, the effects of (−)-NRG-DM on motor performance were evaluated in the rotarod test.
To determine the neurotoxicity effects of (−)-NRG-DM, the standardized rotarod test was conducted in male ICR mice weighted 20 ± 2 g. The mice were divided at random into 4 groups (n = 10 for each group). The mice were placed on a rotarod appliance (YLS-4C, Bio-will, Shanghai, China) with a rod of 3 cm diameter, rotating at a constant speed of 6 rpm. The day before the compound test, all mice were pre-trained and only the animals able to remain on the rod for at least 1 min every time in three consecutive trials (3 min) were retained. During the test, the mice were measured in the rotarod test 0.5 h and 1 h after intraperitoneal administration of (−)-NRG-DM. The animals unable to remain on the rod for 3 consecutive periods were considered motor coordination impaired.

Nav1.8 channel = Nav1.8 channel (Homo sapiens, UniProt Q9Y5Y9); test: whole-cell patch-clamp, Nav1.8 stably expressed in HEK293 cells
Chain of Nav1.8 channel (Q9Y5Y9 whole entry): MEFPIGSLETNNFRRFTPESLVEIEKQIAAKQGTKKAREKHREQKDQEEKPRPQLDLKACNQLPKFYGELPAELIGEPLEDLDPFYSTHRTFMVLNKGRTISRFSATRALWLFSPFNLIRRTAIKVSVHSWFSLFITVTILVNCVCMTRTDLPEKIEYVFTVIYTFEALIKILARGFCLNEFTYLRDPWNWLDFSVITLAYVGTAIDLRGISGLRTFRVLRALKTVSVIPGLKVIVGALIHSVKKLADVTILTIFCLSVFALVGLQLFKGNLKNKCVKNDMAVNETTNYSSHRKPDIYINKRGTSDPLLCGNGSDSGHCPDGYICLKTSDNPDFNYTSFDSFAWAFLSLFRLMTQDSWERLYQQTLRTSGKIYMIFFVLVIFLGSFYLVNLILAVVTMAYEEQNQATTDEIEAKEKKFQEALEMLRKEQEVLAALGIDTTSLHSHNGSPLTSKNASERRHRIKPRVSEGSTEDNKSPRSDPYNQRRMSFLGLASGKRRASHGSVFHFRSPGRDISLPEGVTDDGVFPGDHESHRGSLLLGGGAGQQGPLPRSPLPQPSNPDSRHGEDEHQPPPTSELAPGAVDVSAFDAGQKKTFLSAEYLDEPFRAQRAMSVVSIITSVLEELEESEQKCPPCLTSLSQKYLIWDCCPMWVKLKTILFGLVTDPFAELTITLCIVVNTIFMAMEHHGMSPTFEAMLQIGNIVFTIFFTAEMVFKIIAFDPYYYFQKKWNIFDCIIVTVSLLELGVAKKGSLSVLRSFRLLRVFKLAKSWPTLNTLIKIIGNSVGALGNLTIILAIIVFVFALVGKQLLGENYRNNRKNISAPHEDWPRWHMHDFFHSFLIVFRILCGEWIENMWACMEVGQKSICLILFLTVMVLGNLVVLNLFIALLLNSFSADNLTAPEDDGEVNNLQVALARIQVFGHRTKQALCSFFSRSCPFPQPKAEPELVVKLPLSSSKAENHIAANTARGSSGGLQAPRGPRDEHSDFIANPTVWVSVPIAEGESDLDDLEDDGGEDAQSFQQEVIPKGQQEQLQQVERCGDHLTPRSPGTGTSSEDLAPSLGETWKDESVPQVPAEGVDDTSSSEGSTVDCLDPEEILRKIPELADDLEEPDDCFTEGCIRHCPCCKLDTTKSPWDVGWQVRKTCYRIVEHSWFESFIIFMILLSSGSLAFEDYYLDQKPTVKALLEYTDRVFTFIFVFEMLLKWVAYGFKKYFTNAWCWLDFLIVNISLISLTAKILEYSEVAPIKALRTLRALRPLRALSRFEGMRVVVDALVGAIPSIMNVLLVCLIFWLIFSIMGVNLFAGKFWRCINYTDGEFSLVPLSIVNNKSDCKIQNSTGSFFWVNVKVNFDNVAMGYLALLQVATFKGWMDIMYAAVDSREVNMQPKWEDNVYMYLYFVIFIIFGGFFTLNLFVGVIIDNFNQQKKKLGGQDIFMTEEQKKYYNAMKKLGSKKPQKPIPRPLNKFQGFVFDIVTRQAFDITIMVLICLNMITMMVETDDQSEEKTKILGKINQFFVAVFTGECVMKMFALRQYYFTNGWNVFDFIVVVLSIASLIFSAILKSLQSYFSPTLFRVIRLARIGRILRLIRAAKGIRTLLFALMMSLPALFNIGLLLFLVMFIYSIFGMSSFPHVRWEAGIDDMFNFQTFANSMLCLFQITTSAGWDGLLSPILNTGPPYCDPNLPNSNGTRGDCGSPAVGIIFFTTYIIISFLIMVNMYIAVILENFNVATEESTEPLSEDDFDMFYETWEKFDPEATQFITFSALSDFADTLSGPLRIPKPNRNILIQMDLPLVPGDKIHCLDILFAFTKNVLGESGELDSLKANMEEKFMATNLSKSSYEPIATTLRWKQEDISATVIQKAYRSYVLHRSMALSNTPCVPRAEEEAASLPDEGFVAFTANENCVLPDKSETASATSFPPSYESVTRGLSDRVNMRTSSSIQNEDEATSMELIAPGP

[7] = Mus musculus, DRG neuron, n = 5

Compound: COc1ccc([C@H]2CC(=O)c3c(O)cc(OC)cc3O2)cc1 [(−)-NRG-DM, (−)-naringenin 4′,7-dimethyl ether]
- concentration at which significant reduction in number of action potentials started [1]: 10 µM
- action potential amplitude ([1]; 1 μM): 95.00 ± 5.65 mV
- action potential amplitude ([1]; 3 μM): 93.40 ± 8.27 mV
- action potential amplitude ([1]; 10 μM): 86.80 ± 9.75 mV
- action potential amplitude ([1]; 30 μM): 74.40 ± 7.08 mV
- firing frequency of DRG neurons ([1]; 1~30 μM): dose-dependently inhibited the firing frequency
- V1/2 of activation of Kv currents [2]: −8.08 ± 2.02 mV
- V1/2 of activation, TTX-R currents ([3]; 30 μM, control −16.82 ± 0.72 mV): −20.14 ± 0.87 mV
- V1/2 of steady-state inactivation, TTX-R currents ([3]; 30 µM, control −39.43 ± 0.66 mV): −49.99 ± 0.67 mV
- V1/2 of activation, total Nav currents ([4]; 30 μM, control −15.34 ± 0.58 mV): −15.23 ± 0.56 mV
- V1/2 of steady-state inactivation, total Nav currents ([4]; 30 µM, control −65.72 ± 1.74 mV): −55.34 ± 2.14 mV
- IC50 [4, 7]: 34.78 ± 0.14 µM
- reduction in INa ([4]; at plasma concentration from pharmacokinetic study (around 7 µM)): around 28%
- IC50 [5, 7]: 5.1 ± 0.04 µM
- reduction in IK currents ([5]; at plasma concentration (around 7 µM)): around 58%
- Fall nFall /nTest ([6]; 100 mg/kg i.p., 0.5 h): 0/10
- Motor Impairment (%) ([6]; 100 mg/kg i.p., 0.5 h): 0%
- Fall nFall /nTest ([6]; 100 mg/kg i.p., 1 h): 0/10
- Motor Impairment (%) ([6]; 100 mg/kg i.p., 1 h): 0%
- ability to remain on the rotating rod ([6]; 100 mg/kg, 200 mg/kg, or 400 mg/kg i.p.): no significant effects
- Fall nFall /nTest ([6]; 200 mg/kg i.p., 0.5 h): 1/10
- Motor Impairment (%) ([6]; 200 mg/kg i.p., 0.5 h): 10%
- Fall nFall /nTest ([6]; 200 mg/kg i.p., 1 h): 0/10
- Motor Impairment (%) ([6]; 200 mg/kg i.p., 1 h): 0%
- Fall nFall /nTest ([6]; 400 mg/kg i.p., 0.5 h): 0/10
- Motor Impairment (%) ([6]; 400 mg/kg i.p., 0.5 h): 0%
- Fall nFall /nTest ([6]; 400 mg/kg i.p., 1 h): 0/10
- Motor Impairment (%) ([6]; 400 mg/kg i.p., 1 h): 0%
- signs of toxicity ([6]; 100, 200, 400 mg/kg i.p., during rotarod test (0.5 and 1 h) and 24 h after administration): no sign of toxicity
- inhibitory ratio (Nav1.8 channel; 30 µM): 44 ± 3%
- IDrug/IControl (Nav1.8 channel; 30 μM, HEK293): 0.56 ± 0.03
- V1/2 of steady-state inactivation of Nav1.8 (Nav1.8 channel; 30 µM, control −48.58 ± 0.67 mV): −53.37 ± 0.70 mV
